Experimental findings from US5175172A, “Method of alleviating AIDS symptoms and compositions therefor” (priority 1988, dated 1992) are described below.

Series [1] deals with T4. Here is the method:
Seven Month Follow-Up of Tacrine (THA) vs Zidovudine (AZT) in 72 HIV Infected Patients
Comparison of serological and clinical status of HIV infected patients after THA versus AZT treatment in an open study.
[…] (61 males, 11 females) with HIV infection ([…], 10 stages II and III), received either AZT (46 patients 600-1200 mg./day) or THA (26 patients 150-250 mg/day). In cases of intolerance or inefficacy, treatment was discontinued and patients were treated by the other drug.

Series [2] deals with Agp 24. As to the kind of experiment: Seven month follow-up of THA vs AZT in HIV infected patients (open study): Agp 24. It is filed as in vivo. The source says:
Expressed in mean variation (%) in comparison with Do values.

Series [3] deals with HIV. The experiment in a line: Seven month follow-up of THA vs AZT in HIV infected patients (open study): clinical results. It is filed as in vivo, human. Conditions: AZT n = 52; THA n = 51.
Description: (§1) 70 patients (61 males, 11 females) with HIV infection (69 stage IV, 10 stages II and III), received either AZT (46 patients 600-1200 mg./day) or THA (26 patients 150-250 mg/day).
(§2) 13 patients were treated by THA alone, 20 by AZT alone, 26 by AZT then THA and 13 by THA then AZT. Mean duration of treatment was 5.8 months for 53 courses of AZT 5.4 months for 52 courses of THA.
Series [4] is described as follows: Seven month follow-up of THA vs AZT in HIV infected patients (open study): withdrawals for toxicity. It is filed as in vivo, human. Conditions: AZT n = 52; THA n = 51.
Description: as §1, §2
Series [5] deals with T1, reverse transcriptase of the HIV 1 virus (Human immunodeficiency virus type 1 group M subtype B, UniProt P04585).
T1 construct: Action on Reverse Transcriptase of the HIV 1 Virus; made in house; host or cells: HIV 1 virus grown on CEM cells; virus pelleted from the culture medium and resuspended in Triton X 100 (viral lysate, not recombinant)
As to the kind of experiment: Action on reverse transcriptase of the HIV 1 virus (3H thymidine triphosphate incorporation). In kind it is biochemical. Conditions: 50% inhibition (Di50) of HIV 1 reverse transcriptase, 37° C., 1 hour. Here is the method: For the direct study of the action of the product on the activity of the reverse transcriptase, the virus was concentrated by ultracentrifugation and the plugs of virus removed from the culture medium are resuspended in a solution containing 0.15% Triton X 100, 0.05M Tris at pH 7.8 and 20% glycerol.
These preparations, frozen at -20° C., are active for several months and served for the direct measurement of the products on enzymatic activity.
The THA is diluted as stated above and added to 40 μl of the incubation solution under a volume of 5.5 μl before the addition of 10 μl of the enzymatic preparation. Initial concentrations of the product are thus 10 times more concentrated than the final dilution in the presence of the enzyme. The controls received 5.5 μl of water.

Like-named read-outs stand apart in the source and are kept apart here.

Regarding `Cc1cn([C@H]2C[C@H](N=[N+]=[N-])[C@@H](CO)O2)c(=O)[nH]c1=O` [AZT], the “T4 /mm^3, mean variation (%) in comparison with D0” value in series [1] (D1mth) was “+0.5%”; in series [1] (D2mth), “+8.1%”; in series [1] (D3mth), “+18.5%”; in series [1] (D4mth), “+8.8%”; in series [1] (D5mth), “+17.2%”; in series [1] (D6mth), -40%. In addition, in series [1] (D7mth), the “T4 /mm^3, mean variation (%) in comparison with D0” value is -40%. For the same compound, the “Agp 24, mean variation (%) in comparison with D0” value in series [2] (D1mth) is -20.6%; in series [2] (D2mth), “+3.4%”; in series [2] (D3mth), -1%; in series [2] (D4mth), “+55.6%”; in series [2] (D5mth) it was “+36.5%”; in series [2] (D6mth), “+173%”. In addition, the “Agp 24, mean variation (%) in comparison with D0” value in series [2] (D7mth) is “+142%”. Moreover, the “Deaths, number” value in series [3] is reported as 7. Besides, in series [3], the “Deaths, percent” value is given as 12%. For the same compound, the “Kaposi Emergence, number” value in series [3] was 3. Also, the “Kaposi Emergence, percent” value in series [3] stood at 5%. Further, the “Opportunistic Infections, number” value in series [3] was determined as 27. Besides, in series [3], the “Opportunistic Infections, percent” value is reported as 46%. For the same compound, the “Withdrawals for toxicity, number” value in series [4] is 29. For the same compound, the “Withdrawals for toxicity, percent” value in series [4] came to 49%.
In general, IC50 refers to the concentration at which inhibition is half-maximal. Low readings indicate greater potency, high ones weaker potency. For the compound `O=C(O)P(=O)(O)O` [phosphonoformate], inhibition in series [5] was half-maximal at 1 µM (IC50). In other words, the single-digit micromolar range.
